Reference: publication PMC5663395, “Chemical Validation of Methionyl-tRNA Synthetase as a Druggable Target in Leishmania donovani” (ACS Infectious Diseases, 2017)
Read-outs that look alike come from different tables or passages of the source.

Columns and labels:
[1] = LogD measurement (Sirius T3, potentiometric); assay type: physicochemical; settings: octanol/water
Protocol: calculated, both in terms of pEC50 values. MIC (minimum inhibitory concentration) values are defined as the lowest concentration tested at which maximal inhibition is reached.
THP-1 cells were differentiated in 96-well plates with PMA as described above. Following differentiation the cells were treated for 30 min with dose-response curves of test compounds in presence of 100 nM LysoTracker Red DND-99 (Thermo Fisher) and 5 µg/ml Hoechst 33342. Next cells were washed 3 times with Hanks Buffered Saline Solution (Gibco) and imaged on a Perkin Elmer Operetta system. An image analysis algorithm to measure mean Lysotracker Red DND-99 intensity per cell was developed in Columbus. […]
To measure the pKa of DDD806905, a fast UV-metric method was performed using a Sirius T3 instrument (Sirius Analytical, U.K.). The calculation of the pKa was determined using the Sirius T3 refine software (Sirius Analytical, U.K.). In brief, the UV-metric pKa method is based on measuring pH during an acid-base titration and monitoring UV absorbance shift. […] The appearance of precipitate was monitored throughout the experiment by a turbidity sensing device. […] The pKas of DDD806905 was determined at the pH where there was maximal change in UV absorbance with respect to pH. […]
LogD7.4 values were quantified using a Sirius T3 instrument (Sirius Analytical, U.K.). […]
which gave the best fit to the data was then recorded as the logP. […]

[2] = test system: L. donovani promastigotes; test: Leishmania promastigote viability assay; assay type: cell-based, Leishmania donovani; settings: Leishmania donovani
Protocol: After suitable sample preparation, the
In vivo Leishmaniasis Animal Model […]
administered twice daily over the same interval.
Parasite load is expressed in Leishman-
Knock-out and overexpressor generation
Leishmania Promastigote Assay
Serum shift experiments were […]
carried out as described above using 5%, 10% and 20% FBS in the media. To examine the effect of the methionine concentration on the potency of DDD806905 parasites were grown in the presence of drug and in the presence (or absence) of 20-fold excess methionine (0.3 g/l). IC50 curve fitting was undertaken in GraFit version 6.0 (Erithacus Software) using a four-parameter logistic dose-response curve (equation 6), with s the slope.
Leishmania Axenic Amastigote Assay
The Leishmania axenic amastigote assay was performed using the method published in Nühs et al 15.
Leishmania Intracellular Amastigote Assay
The intramacrophage Leishmania assay was performed using a modified version of the method described in De Rycker et al 16. […]
amphotericin B was included. Controls were as follows: columns 11 and 12: DMSO, columns 23 and 24: amphotericin B (final concentration 2 µM). 350 nl of compound was pre-dispensed into 384-well sterile intermediary plates. To the intermediary plates, 35 µl of THP-1 media was added and plates were shaken for >5 min to ensure complete mixing. THP-1 cells (8,000 per well, 50 µl) were plated into black clear-bottom 384-well plates (Corning) in presence of 20 nM phorbol 12-myristate 13-

Molecule `Cl.Cl.O=c1nc(NCCCNCc2cc3c(Cl)cc(Cl)cc3[nH]2)[nH]c2ccccc12` [DDD806905, 2-((3-(((4,6-dichloro-1H-indol-2-yl)methyl)amino)propyl)amino)quinazolin-4(1H)-one dihydrochloride] has a logD ([1]; pH 5.6, read-out: log D5.6) of 0.3, a logD ([1]; pH 7.3, read-out: log D7.3) of 2.6 and an EC50 ([2]; 10% serum, read-out: promastigote EC50) of 0.27 µM. For the same molecule, the EC50 ([2]; Supplementary Table 1, read-out: Leishmania Promastigote EC50) was 0.44 µM, the EC50 ([2]; absence of excess methionine, read-out: promastigote EC50) was 0.46 µM and the EC50 ([2]; extrapolated to 100% serum, read-out: predicted promastigote EC50) was 1.75 µM. For the same molecule, the EC50 ([2]; extrapolated to no serum, read-out: predicted promastigote EC50) was 0.12 µM and the EC50 ([2]; presence of excess methionine (2 mM), read-out: promastigote EC50) was 1.9 µM.
